Results published in ChEMBL document CHEMBL1148569, “Aza-analogues of the marine pyrroloquinoline alkaloids wakayin and tsitsikammamines: synthesis and topoisomerase inhibition” (Bioorg Med Chem Lett, 2006).
Active and inactive are the calls of the source. The rule behind the calls is not given here.

Columns and labels:
[1] = biological target: T1, DNA topoisomerase 1 (Homo sapiens) (UniProt P11387); experiment: Inhibition of Topoisomerase 1 mediated DNA cleavage activity in a cell free assay at 100 uM
T1 sequence (whole entry): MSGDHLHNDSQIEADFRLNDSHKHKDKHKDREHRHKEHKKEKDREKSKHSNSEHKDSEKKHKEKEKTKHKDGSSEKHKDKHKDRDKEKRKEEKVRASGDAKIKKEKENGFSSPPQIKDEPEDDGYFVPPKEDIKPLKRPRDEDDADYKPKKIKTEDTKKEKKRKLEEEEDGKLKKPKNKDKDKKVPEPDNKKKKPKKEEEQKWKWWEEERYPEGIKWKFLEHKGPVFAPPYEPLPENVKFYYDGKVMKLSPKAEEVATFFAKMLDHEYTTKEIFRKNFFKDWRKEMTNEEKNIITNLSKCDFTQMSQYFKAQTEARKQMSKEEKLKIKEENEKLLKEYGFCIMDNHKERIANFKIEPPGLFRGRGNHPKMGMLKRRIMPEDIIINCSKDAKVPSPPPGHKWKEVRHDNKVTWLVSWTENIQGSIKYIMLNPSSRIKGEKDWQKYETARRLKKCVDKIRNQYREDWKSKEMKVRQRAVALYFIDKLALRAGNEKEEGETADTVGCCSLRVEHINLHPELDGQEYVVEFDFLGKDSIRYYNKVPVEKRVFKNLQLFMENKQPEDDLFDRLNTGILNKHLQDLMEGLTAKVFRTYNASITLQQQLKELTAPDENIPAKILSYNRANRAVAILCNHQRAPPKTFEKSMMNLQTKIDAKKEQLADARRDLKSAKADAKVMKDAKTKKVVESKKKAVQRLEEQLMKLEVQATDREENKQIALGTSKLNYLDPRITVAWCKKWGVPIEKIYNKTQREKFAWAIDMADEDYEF

[2] = biological target: DNA topoisomerase II (Homo sapiens) (UniProt P11388+Q02880); experiment: Inhibition of Topoisomerase 2 mediated DNA cleavage activity in a cell free assay at 100 uM; type: protein assay

Row | SMILES | Activity [1] | Activity [2]
1 | O=C1c2cc[nH]c2C2=NCCc3n[nH]c1c32 | inactive | inactive
2 | O=C1c2[nH]ccc2C2=NCCc3n[nH]c1c32 | Active | inactive
